Experimental findings from patent publication US20220193076A1, “METHODS OF TREATING BREAST CANCER WITH TUCATINIB” (Seagen Inc., priority 2019, published 2022) are described below.

By IC50 is commonly meant the concentration at which inhibition is half-maximal. A higher IC50 goes with weaker potency.

One data set addresses T1, OAT2 (Homo sapiens, UniProt Q9Y694).
T1 construct: expressed in transfected cells; host or cells: MDCK-II
T1 sequence (Q9Y694 1-548): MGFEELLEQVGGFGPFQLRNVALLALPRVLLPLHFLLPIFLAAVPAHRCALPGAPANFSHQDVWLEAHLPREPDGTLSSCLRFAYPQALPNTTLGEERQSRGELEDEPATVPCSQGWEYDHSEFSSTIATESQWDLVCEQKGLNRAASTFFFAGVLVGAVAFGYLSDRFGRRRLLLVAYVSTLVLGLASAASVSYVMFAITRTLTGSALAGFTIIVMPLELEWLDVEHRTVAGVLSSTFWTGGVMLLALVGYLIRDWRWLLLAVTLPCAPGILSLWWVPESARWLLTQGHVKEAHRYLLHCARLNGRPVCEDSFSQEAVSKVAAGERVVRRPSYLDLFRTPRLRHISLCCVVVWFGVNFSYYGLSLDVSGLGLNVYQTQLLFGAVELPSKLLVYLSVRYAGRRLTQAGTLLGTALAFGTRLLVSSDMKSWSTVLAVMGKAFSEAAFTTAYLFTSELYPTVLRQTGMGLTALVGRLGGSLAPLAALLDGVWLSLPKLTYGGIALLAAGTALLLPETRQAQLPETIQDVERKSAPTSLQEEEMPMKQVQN
Nature of the data set: Inhibition of OAT2 mediated transport of creatinine in transfected MDCK-II cells (Example 3). Type of data set: in vitro ADME. To be noted: at concentration of 10 μM. The method, then:
(§1) Substrate dependent inhibition is common among transporters including MATE1 and MATE2-K. In this study, creatinine was used as the probe substrate to assess the inhibitory potency of Tucatinib and ONT-993. OAT2, OCT2, OCT3, MATE1, and MATE2-K are the renal transporters identified to transport creatinine. Tucatinib and its metabolite ONT-993 were tested as potential inhibitors of OAT2, OCT2, MATE1, and MATE2-K mediated transport using creatinine as a probe substrate.
(§2) For this study, MDCK-II were maintained in DMEM with low glucose and 10% FBS. Cells were seeded at 60K±10K cells/well on 96-well, transwell membrane plates approximately 24 hours before transfection. Transport assays were carried out approximately 48 hours after transfection. Cells were transfected and treated to express the transporter of interest or treated with a control vector. The transport of creatinine was determined by radiometric detection.
(§3) Net transporter mediated uptake of the substrate by each transporter was calculated as follows: Net Transporter Mediated Substrate Uptake (pmol/min/cm^2)=(Cellular accumulation in the presence of the transporter)−(Mean cellular accumulation in the absence of the transporter.
(§4) Percent inhibition was calculated as follows: Percent inhibition=100−(100*(transporter mediated uptake)with inhibition/(transporter mediated uptake)without inhibition) […]

A further data set concerns the target T2, OCT2 (Homo sapiens, UniProt O15244).
T2 construct: expressed in transfected cells; host or cells: MDCK-II
T2 sequence (O15244 1-555): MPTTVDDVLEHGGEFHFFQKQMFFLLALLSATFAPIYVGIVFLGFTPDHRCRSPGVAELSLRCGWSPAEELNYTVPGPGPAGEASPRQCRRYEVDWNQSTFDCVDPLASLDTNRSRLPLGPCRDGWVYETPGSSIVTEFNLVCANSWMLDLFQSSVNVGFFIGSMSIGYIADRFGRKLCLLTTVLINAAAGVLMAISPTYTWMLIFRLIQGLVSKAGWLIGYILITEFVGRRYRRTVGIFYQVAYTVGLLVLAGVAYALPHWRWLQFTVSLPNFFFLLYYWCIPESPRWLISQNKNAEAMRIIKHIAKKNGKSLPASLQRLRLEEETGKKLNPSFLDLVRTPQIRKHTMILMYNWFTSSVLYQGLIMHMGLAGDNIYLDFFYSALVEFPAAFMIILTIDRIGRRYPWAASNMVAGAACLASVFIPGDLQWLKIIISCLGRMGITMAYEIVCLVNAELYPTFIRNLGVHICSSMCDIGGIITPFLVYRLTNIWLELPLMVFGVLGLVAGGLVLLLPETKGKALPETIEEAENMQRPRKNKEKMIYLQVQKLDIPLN
Put plainly: Inhibition of OCT2 mediated transport of creatinine in transfected MDCK-II cells (Example 3). Type of data set: in vitro ADME. To be noted: probe substrate creatinine, 0.03 to 10 μM. The procedure: as §1, §2, §3, §4

A short description of data set [1]: Example 2 Part E: single- and multiple-dose PK of tucatinib and ONT-993. Type of data set: in vivo, human. To be noted: tucatinib 300 mg BID, Day 14 vs Day 8.
The target of another data set is T3, MATE1 (Homo sapiens, UniProt Q96FL8).
T3 sequence (Q96FL8 1-570): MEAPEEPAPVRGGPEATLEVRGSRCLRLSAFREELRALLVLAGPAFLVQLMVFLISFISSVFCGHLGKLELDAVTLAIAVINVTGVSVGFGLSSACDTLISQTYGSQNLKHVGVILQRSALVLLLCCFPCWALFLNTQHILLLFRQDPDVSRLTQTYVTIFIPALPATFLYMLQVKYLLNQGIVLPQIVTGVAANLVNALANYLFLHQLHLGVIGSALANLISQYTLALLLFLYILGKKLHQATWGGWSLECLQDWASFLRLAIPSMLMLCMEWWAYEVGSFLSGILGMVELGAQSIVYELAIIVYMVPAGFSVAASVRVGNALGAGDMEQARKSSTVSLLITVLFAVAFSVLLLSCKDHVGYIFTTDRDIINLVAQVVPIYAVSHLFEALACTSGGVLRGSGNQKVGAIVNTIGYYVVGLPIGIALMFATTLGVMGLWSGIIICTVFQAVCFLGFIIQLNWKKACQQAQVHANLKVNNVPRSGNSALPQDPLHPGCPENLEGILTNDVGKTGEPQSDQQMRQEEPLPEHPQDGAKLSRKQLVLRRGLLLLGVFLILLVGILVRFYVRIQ
Nature of the data set: Inhibition of MATE1 mediated transport of creatinine in transfected MDCK-II cells (Example 3). Also noted: expressed in transfected cells; host or cells: MDCK-II. In kind it is in vitro ADME. The conditions noted are these: probe substrate creatinine. The procedure: OAT2, OCT2, OCT3, MATE1, and MATE2-K are the renal transporters identified to transport creatinine.
as §2, §3
Percent inhibition was calculated as follows: Percent inhibition=100−(100*(transporter mediated uptake)with inhibition/(transporter mediated uptake)without inhibition)
The following equation was used to determine IC50 values of uptake assays: […]

On to `Cc1cc(Nc2ncnc3ccc(NC4=NC(C)(CO)CO4)cc23)ccc1Oc1ccn2ncnc2c1` (stereo not shown) [ONT-993], for which, at OAT2, the “Maximum inhibition of OAT2 mediated transport of creatinine” value was 44.9%. For the same molecule, the half-maximal inhibitory concentration (IC50) at OCT2 stood at 544 ± 278 nM; against MATE1, 86.3 ± 12.6 nM. In addition, the “Rac (accumulation ratio) after multiple dosing” value in data set [1] came to 2.01.
